Measured values from publication PMC10526274, “Epithelial-Immune Cell Crosstalk Determines the Activation of Immune Cells In Vitro by the Human Cathelicidin LL-37 at Low Physiological Concentrations” (Biomolecules, 2023).

How the values were obtained:
primary blood monocytes = assay: Multiplex phosphoprotein signaling in monocyte lysates, monocytes alone + LL-37; assay type: cell-based, human; conditions: 1 µM LL-37, 2 h, mean MFI normalized to β-tubulin
Method: (§1) Primary blood monocytes were isolated from PBMCs by plastic adhesion in the wells of a 24-well plate 24 h prior to the experiment. For that, 2 × 10^6 PBMC were seeded in each well in 2 mL of RPMI-1640 without supplements and kept for 1 h in a humidified CO2-incubator (5% CO2, 37 °C). Then, the adhered monocytes were thoroughly washed 3 times with the culture medium without supplements, and 600 µL of the complete RPMI-1640, supplemented with 10% Human AB serum, was added into each well. Then, 24 h later, the medium in the wells of a 24-well plate was replaced by a fresh medium with or without 1 µM of LL-37, and the permeable inserts with Caco-2 monolayers with TEER > 400 Ω × cm^2, containing 400 μL of the complete medium in their apical chamber, were immediately placed into the appropriate wells for 2 h. Then, 2 h later, the culture medium and the inserts were carefully removed, and the cells in each well were washed with PBS and lysed in 100 µL of MILLIPLEX MAP Lysis Buffer (cat. #43-040, Merck, Darmstadt, Germany), containing phosphatase inhibitors including 1 mM sodium orthovanadate (Na3VO4). To prevent protein degradation, a protease inhibitor cocktail (cat. #535140, Merck) was freshly added to the MILLIPLEX MAP Lysis Buffer. Cell lysate preparation was performed in accordance with the manufacturer’s instructions.
(§2) The phosphorylation of the following key cell signaling kinases and transcription factors was measured in cell lysates by using the MILLIPLEX multi-pathway magnetic bead 9-plex kit (#48-680MAG, Merck), containing phosphorylation state-specific antibodies: ERK/MAP kinase 1/2 (Thr185/Tyr187), Akt (Ser473), STAT3 (Ser727), JNK (Thr183/Tyr185), p70S6 kinase (Thr412), NF-κB (Ser536), STAT5A/B (Tyr694/699), CREB (Ser133), and p38 (Thr180/Tyr182). β-Tubulin MAPmate magnetic beads (#46-713MAG, Merck) were used as an assay normalization control to normalize the total protein level between the samples. A multiplex assay was carried out in accordance with the manufacturer’s instructions with overnight incubation of the samples with primary antibodies to phosphorylated signaling proteins on the MAGPIX system (Merck) using the xPONENT 4.2 software (Merck). The final analysis of the acquired fluorescence data was performed with the MILLIPLEX Analyst v5.1 software (Merck). Normalized MFI values were compared with an unpaired two-sample t-test using GraphPad Prism v.8.0.1 (GraphPad Software). The p-values ≤ 0.05 were considered significant.

[1] = system: monocytes in Caco-2/Monocytes co-culture; assay: Multiplex phosphoprotein signaling in monocyte lysates, Caco-2/monocytes co-culture + LL-37; assay type: cell-based, human; conditions: monocyte lysate, 1 µM LL-37, 2 h, mean MFI normalized to β-tubulin
Method: as §1, §2

Substance: LL-37: the only human cathelicidin, host defense antimicrobial peptide of 37 a.a. residues, produced by solid-phase peptide synthesis
- phosphorylated STAT3 (primary blood monocytes; control 0.03): 0.04 MFI
- phosphorylated NF-kB (primary blood monocytes; control 96.21): 54.12 MFI
- phosphorylated STAT5 (primary blood monocytes; control 134.68): 66.15 MFI
- phosphorylated JNK (primary blood monocytes; control 214.97): 140.9 MFI
- phosphorylated p70S6K (primary blood monocytes; control 279.26): 462.14 MFI
- phosphorylated Akt (primary blood monocytes; control 3026): 2827 MFI
- phosphorylated ERK 1/2 (primary blood monocytes; control 5351): 4054 MFI
- phosphorylated p38 (primary blood monocytes; control 28314): 24565 MFI
- phosphorylated CREB (primary blood monocytes; control 151618): 112466 MFI
- phosphorylated STAT3 ([1]; control 0.06): 0.06 MFI
- phosphorylated NF-kB ([1]; control 0.09): 0.09 MFI
- phosphorylated STAT5 ([1]; control 0.09): 0.09 MFI
- phosphorylated JNK ([1]; control 48.84): 176.7 MFI
- phosphorylated p70S6K ([1]; control 472.48): 902.08 MFI
- phosphorylated Akt ([1]; control 2712): 2358 MFI
- phosphorylated ERK 1/2 ([1]; control 5812): 11464 MFI
- phosphorylated p38 ([1]; control 17697): 21951 MFI
- phosphorylated CREB ([1]; control 81479): 106317 MFI
